Experiments:
[1] = Stability in pH2 buffered solution; assay type: physicochemical; settings: 50 µg/mL, pH 2
In short: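 Compounds diluted from 1 mg/mL acetonitrile stock to 50 μg/mL in 50 mM phosphate buffer with 150 mM NaCl at pH2 or pH7, held at 40° C. for 24 hrs. UPLC sampling at 0, 3, 6, 9, 12 hrs, plus 24 hrs from oven-stored duplicate; reported as % area normalized of compound peak.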

[2] = male, Sprague-Dawley, rat, in vivo, po
Protocol: Example E: Rat pharmacokinetics assay
Blood samples were collected into pre-chilled collection tubes containing K2EDTA and processed to plasma at 10 time points over a span of pre-dose to 24 h post-administration. Plasma samples were subject to protein precipitation with a 12.5-fold volume of methanol, vortexed and centrifuged. Supernatants were transferred and evaporated to dryness under nitrogen and reconstituted with 5% acetonitrile in water.

Stability at pH2, 0 hr ([1]; 0 h): 98.5 % AN
Stability at pH2, 3 hr ([1]; 3 h): 97.8 % AN
Stability at pH2, 6 hr ([1]; 6 h): 97.3 % AN
Stability at pH2, 9 hr ([1]; 9 h): 96.7 % AN
Stability at pH2, 12 hr ([1]; 12 h): 96.1 % AN
Stability at pH2, 24 hr ([1]; 24 h): 94.4 % AN
Cmax [2]: 2100 nM
Reference Compound A AUCinf. [2]: 7.57 µM·h
Reference Compound A F % ([2]; 1 mg/kg): 63.6%
SMILES: CC(C)C(=O)OC[C@H]1O[C@@](C#N)(c2ccc3c(N)ncnn23)[C@H](O)[C@@H]1O [Ester Reference Compound]

Source: patent publication US12448383B2, “Compounds and methods for treatment of viral infections” (priority 2022, dated 2025)
